{"source": "patent US20250170252A1", "about": "“QUINONE PROTECTED FORMS AND CONJUGATES” (CAMBRIDGE ENTERPRISE LIMITED, priority 2022, published 2025)", "format_in_all_cases": "cell-based", "key": {"MOLM-13": {"test_system": "MOLM-13", "test": "Toxicity with/without β-glucuronidase, MOLM-13", "settings": "Homo sapiens, MOLM-13; read-out: IC50 β-lapachone, 1", "description": "(§1) Assays assessing cytotoxicity of β-lapachone and derivatives were performed by CellTiter-Blue assay (Promega) according to the manufacturer's instructions. Briefly, adherent cancer-cell lines were plated at 20,000 cells/well in 96 well plates or suspension cell lines were plated at a concentration of 2×10^5 cells/mL in 24 well plates. Compound stocks in media were made by dilution of DMSO stocks containing the compound of interest to obtain a final in-plate DMSO concentration of only 0.1%. Incubation was performed for 48 h. Following incubation, media was replaced with media containing CellTiter-Blue (Promega) in 1:10 dilution and the plates were incubated for 1.5-4 h. The fluorescence of the plates was recorded (excitation 555 nm, emission 585 nm, MiniMax i3x Reader, Molecular Devices).\n(§2) Cell viability was calculated by division of the fluorescence intensity of treated wells by that of the calculated average fluorescence intensity of replicate negative control wells containing cells with 0.1% DMSO only. Values and reported error bars represent the mean and standard error of the mean of three triplicate repeats for each concentration tested. IC50 values were calculated using GraphPad Prism 8 software.\n(§3) The potential of compound 37a, glucuronide-PHB-BL, as a prodrug was investigated. As discussed above, at physiological pH the compound has a relatively slow-release rate. Toxicity of Gluc-PHB-BL 37a was tested against a range of cell lines with and without added β-glucuronidase. Addition of the enzyme mimics conditions of the solid tumour environment."}, "[1]": {"test_system": "Aspc-1 pancreatic cancer cell line", "test": "CellTiter Glo viability assay, Aspc-1", "settings": "Homo sapiens, ASPC1; Aspc-1, β-lapachone alone, 48 hours; read-out: IC50", "description": "For CellTiter Glo viability assays, 10,000 cells per well were plated on Day 1 and were allowed to adhere to the plate surface for 24 hours. Optimized concentration ranges of prodrugs were determined and made via serial dilution. […] Cells were incubated with compound for 48 hours and viability was assessed on Day 4 using the CellTiter Glo Viability assay which measures metabolically active cells by quantifying the amount of ATP present.\nPanc-1 cells were obtained from Tony Kouzarides' lab in the Gurdon Institute at the University of Cambridge and put into culture at passage 10 containing DMEM media (Gibco) supplemented with 1% Pen-Strep antibiotic (Gibco), 1% L-glutamine, and 10% fetal bovine serum (FBS, sterile-filtered). Aspc-1 cells were bought commercially from the American Type Culture Collection (ATCC) and put into culture containing RPMI 1640 media (Gibco) supplemented with 1% Pen-Strep antibiotic (Gibco), 1% L-glutamine, and 20% fetal bovine serum (FBS, sterile-filtered). All cell lines were started at passage 10 and passaged every 3 days by centrifuging at 1000 rpm for 4 minutes."}, "ovine blood": {"test_system": "ovine blood", "test": "Methaemoglobin analysis in sheep's blood", "settings": "after 1 h of incubation", "description": "Defibrinated Oxoid™ sheep's blood (ThermoScientific) was diluted to a 5% v/v suspension in PBS pH 7.4. In a 96 well microtiter plate, 150 μL of blood suspension was added to 50 μL of serially diluted compound in PBS containing a 4× stock of each compound of interest. Serial dilution of compounds from DMSO stocks into PBS was performed to achieve an in-plate DMSO concentration of 0.1%. PBS buffer alone was used as a negative control. Three replicates were performed for each compound concentration analysed. The plate was incubated for the specified time at 37° C. The plate was then centrifuged at 3,500 rpm for 5 min. The supernatant was removed and cells lysed by resuspension in 100 μL of a solution of Triton-X-100 (1%) in PBS. Following this 80 μL of lysed cell contents were transferred to a second microtiter plate for UV measurement. To determine methaemoglobin increase, UV absorbance was measured immediately at 630 nm (MiniMax i3x Imager, Molecular Devices). Methaemoglobin increase was determined by (A630−A^0630)/(A^0630)×100, where A630 is the absorbance of the test well at 630 nm, and A^0630 is the absorbance of the negative control at 630 nm. Mean values and standard error of the mean of three independent replicates are plotted."}, "range of cell lines": {"test_system": "range of cell lines", "test": "Toxicity of Gluc-PHB-BL against a range of cell lines with and without added β-glucuronidase", "settings": "control tests", "description": "as §1, §2, §3"}, "HL-60 cells": {"test_system": "HL-60 cells", "test": "N-acetyl cysteine cytotoxicity assay", "description": "For assays involving cytotoxicity of β-lapachone derivatives with and without antioxidant N—-acetyl cysteine, HL-60 cells were plated into 24 well plates at a concentration of 2.5×10^5 cells/mL in 450 μL. To each well was then added 25 μL of drug diluted in PBS to obtain the correct in-plate drug concentration, and 25 μL of PBS or a stock of N-acetyl cysteine at 12 mM in PBS. DMSO was maintained at an in-plate concentration of 0.1%. After 96 h incubation, toxicity was assessed by counting of live cells using the Trypan Blue exclusion method with a Countess II Automated Cell Counter (ThermoFisher Scientific) according to the manufacturer's instructions. Cell viability was determined by division of average live cell number of treated wells by average live cell number for control wells treated with 0.1% DMSO. […] Values recorded are the mean of three repeat wells, with error bars representing the standard error of the mean for each concentration tested."}, "SkBr-3": {"test_system": "SkBr-3", "test": "Toxicity with/without β-glucuronidase, SkBr-3", "settings": "Homo sapiens, SK-BR-3; SkBr-3; read-out: IC50 β-lapachone, 1", "description": "as §1, §2, §3"}, "HL-60": {"test_system": "HL-60", "test": "Toxicity with/without β-glucuronidase, HL-60", "settings": "Homo sapiens, HL-60; read-out: IC50 β-lapachone, 1", "description": "as §1, §2, §3"}, "HEK-293T": {"test_system": "HEK-293T", "test": "Toxicity with/without β-glucuronidase, HEK-293T", "settings": "Homo sapiens, read-out: IC50 β-lapachone, 1", "description": "as §1, §2, §3"}, "[2]": {"test_system": "HeLa (cervical cancer cell line)", "test": "Viability assay (CellTiter-Blue), HeLa", "settings": "Homo sapiens", "description": "as §1, with “MiniMax i3x” left out, “Devices). Cell viability was calculated by division of the fluorescence intensity of treated wells by that of the calculated average fluorescence intensity of replicate negative control wells containing cells with 0.1% DMSO only. Values and reported error bars represent the mean and standard error of the mean of three triplicate repeats for each concentration tested.” for “Devices).”"}, "[3]": {"test_system": "SKBR3 (breast cancer cell line)", "test": "Viability assay (CellTiter-Blue), SKBR3", "settings": "Homo sapiens, SK-BR-3", "description": "as §1, with “MiniMax i3x” left out, “Devices). Cell viability was calculated by division of the fluorescence intensity of treated wells by that of the calculated average fluorescence intensity of replicate negative control wells containing cells with 0.1% DMSO only. Values and reported error bars represent the mean and standard error of the mean of three triplicate repeats for each concentration tested.” for “Devices).”"}}}
{"smiles": "CC1(C)CCC2=C(O1)c1ccccc1C(=O)C2=O", "note": "[Compound 1, β-lapachone, reference compound]", "values": [{"measurement": "IC50", "setting": "MOLM-13", "result": 12.1, "unit": "µM"}, {"measurement": "IC50", "setting": "[1]", "result": 7.66, "unit": "µM"}, {"measurement": "lowest dose concentration at which methaemoglobin formation is detectable", "setting": "ovine blood", "result": 10, "unit": "µM"}, {"measurement": "effect of β-glucuronidase addition on toxicity", "setting": "range of cell lines", "result": "not significantly affected"}, {"measurement": "change of IC50 upon NAC addition", "setting": "HL-60 cells; HL-60", "result": "more than doubled"}, {"measurement": "IC50", "setting": "HL-60 cells; Homo sapiens, HL-60, HL-60, without NAC", "result": "0.47 ± 0.26", "unit": "µM"}, {"measurement": "IC50", "setting": "SkBr-3", "result": 2.75, "unit": "µM"}, {"measurement": "IC50", "setting": "HL-60", "result": 4.33, "unit": "µM"}, {"measurement": "IC50", "setting": "HEK-293T", "result": 2.91, "unit": "µM"}, {"measurement": "IC50", "setting": "[2]", "result": 4.2, "unit": "µM"}, {"measurement": "IC50", "setting": "[3]", "result": 2.8, "unit": "µM"}]}
